Consider 1 compound from ChEMBL document CHEMBL6120962, “New Mitochondria-Targeted Fisetin Derivative Compromises Mitophagy and Limits Survival of Drug-Induced Senescent Breast Cancer Cells” (J Med Chem, 2024).

The test system of assay [1] is ZR-75-30. The experiment in a line: Induction of apoptosis in tamoxifen-induced senescent human ZR-75-30 cells assessed as increase in caspase 9 level incubated for 24 hrs by immunostaining based imaging cytometric analysis. The assay is classed as functional, cell-based.
The test system of assay [2] is MCF-10F. The experiment in a line: Effect on Bcl-rambo protein level in tamoxifen-induced senescent human MCF-10F cells at 1 to 5 uM incubated for 24 hrs by Western blot analysis. The class given is functional, cell-based. The following applies: dose 1-5 µM. For orientation: In western blotting, separated proteins are transferred to a membrane and probed.
In assay [3] the test system is HCC1500. The experiment in a line: Anticancer activity against ER-positive human HCC1500 cells assessed as effect on metabolic activity upto 10 uM incubated for 24 hrs by MTT assay. The class given is functional, cell-based. (Tetrazolium assays rely on reduction of a dye to a coloured formazan, in cell work by metabolically active cells.)
The test system of assay [4] is MCF-10F. The experiment in a line: Induction of mitochondrial dysfunction in human MCF-10F cells assessed as decrease in coupling efficiency at 5 uM incubated for 6 hrs by real time analysis. The assay is classed as functional, cell-based.
Assay [5] relates to HCC1428. The experiment in a line: Induction of mitochondrial dysfunction in tamoxifen-induced senescent human HCC1428 cells assessed as decrease in spare respiratory capacity at 5 uM incubated for 6 hrs by real-time analysis. The assay is classed as functional, cell-based.
Assay [6] deals with CAMA-1. The experiment in a line: Anticancer activity against ER-positive human CAMA-1 cells assessed as effect on metabolic activity upto 10 uM incubated for 24 hrs by MTT assay. The class given is functional, cell-based.
For assay [7], the system named is Mitochondrial membrane. The experiment in a line: Induction of mitochondrial membrane potential depolarization in tamoxifen-induced senescent human MCF-10F cells assessed as increase in depolarized dead cell level at 1 to 5 uM incubated for 24 hrs by 7-AAD staining based flow cytometric analysis. The assay is classed as cell membranes. As to conditions: dose 1-5 µM.

In assay [8] the test system is HCC1428. The experiment in a line: Upregulation of BECN1 level in tamoxifen-induced senescent human HCC1428 cells at 1 to 5 uM by immunostaining based imaging cytometric analysis. The assay is classed as functional, cell-based. As to conditions: dose 1-5 µM.
The test system of assay [9] is ZR-75-30. The experiment in a line: Anticancer activity against ER-positive human ZR-75-30 cells assessed as effect on metabolic activity upto 10 uM incubated for 24 hrs by MTT assay. The class given is functional, cell-based.
Assay [10] has as its target T1, Mixed lineage kinase domain-like protein (Homo sapiens) (UniProt Q8NB16).
T1 sequence (whole entry): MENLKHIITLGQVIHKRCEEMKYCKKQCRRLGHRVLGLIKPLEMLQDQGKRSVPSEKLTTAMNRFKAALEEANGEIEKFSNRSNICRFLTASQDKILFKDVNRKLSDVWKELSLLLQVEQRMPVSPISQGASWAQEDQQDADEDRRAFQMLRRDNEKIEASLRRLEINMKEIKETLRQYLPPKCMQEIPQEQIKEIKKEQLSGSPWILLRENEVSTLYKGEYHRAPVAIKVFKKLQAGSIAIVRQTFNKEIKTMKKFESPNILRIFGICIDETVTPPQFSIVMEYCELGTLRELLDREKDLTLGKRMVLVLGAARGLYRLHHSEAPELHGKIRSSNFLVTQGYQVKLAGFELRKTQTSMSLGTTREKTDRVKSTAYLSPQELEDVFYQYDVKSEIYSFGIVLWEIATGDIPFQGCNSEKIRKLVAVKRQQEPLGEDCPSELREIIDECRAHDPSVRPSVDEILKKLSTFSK
The experiment in a line: Induction of MLKL phosphorylation in human HCC1428 cells at 1 to 5 uM incubated for 24 hrs by Western blot analysis. The following applies: dose 1-5 µM. The class given is cell-based.

The subject of assay [11] is HCC1428. The experiment in a line: Induction of ubiquitin-independent mitophagy in tamoxifen-induced senescent human HCC1428 cells assessed as increase in BNIP3 level at 1 to 5 uM by immunostaining based imaging cytometric analysis. As to conditions: dose 1-5 µM. The assay is classed as functional, cell-based.
The target of assay [12] is T2, Receptor-interacting serine/threonine-protein kinase 1 (Homo sapiens) (UniProt Q13546).
T2 sequence (whole entry): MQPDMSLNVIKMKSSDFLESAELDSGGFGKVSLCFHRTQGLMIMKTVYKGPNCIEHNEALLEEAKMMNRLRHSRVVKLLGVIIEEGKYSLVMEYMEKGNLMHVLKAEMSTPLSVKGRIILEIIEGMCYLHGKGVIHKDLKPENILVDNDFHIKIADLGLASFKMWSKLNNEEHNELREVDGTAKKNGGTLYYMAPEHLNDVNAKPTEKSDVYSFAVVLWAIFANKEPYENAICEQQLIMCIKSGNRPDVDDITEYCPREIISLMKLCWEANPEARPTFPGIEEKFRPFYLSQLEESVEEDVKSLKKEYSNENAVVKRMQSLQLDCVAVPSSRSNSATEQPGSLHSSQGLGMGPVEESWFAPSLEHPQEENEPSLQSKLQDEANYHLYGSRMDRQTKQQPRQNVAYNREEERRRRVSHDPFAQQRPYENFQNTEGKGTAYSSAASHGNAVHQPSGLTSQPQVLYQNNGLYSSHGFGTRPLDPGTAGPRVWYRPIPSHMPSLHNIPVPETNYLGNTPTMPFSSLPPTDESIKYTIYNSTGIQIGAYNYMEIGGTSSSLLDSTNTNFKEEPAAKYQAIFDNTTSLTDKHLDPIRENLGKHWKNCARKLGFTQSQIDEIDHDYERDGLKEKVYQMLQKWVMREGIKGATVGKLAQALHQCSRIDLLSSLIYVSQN
The experiment in a line: Induction of RIP1 phosphorylation in human HCC1428 cells at 1 to 5 uM incubated for 24 hrs by Western blot analysis. The class given is cell-based. The following applies: dose 1-5 µM.

The test system of assay [13] is HCC1428. The experiment in a line: Induction of apoptosis in tamoxifen-induced senescent human HCC1428 cells assessed as decrease in Bcl2 level at 5 uM incubated for 24 hrs by Western blot analysis. The assay is classed as functional, cell-based.
The test system of assay [14] is Mitochondrial membrane. The experiment in a line: Induction of mitochondrial membrane potential depolarization in human ZR-75-30 cells at 1 uM incubated for 24 hrs by 7-AAD staining based flow cytometric analysis. The assay is classed as cell membranes. For orientation: In flow cytometry, cells or beads pass a laser one at a time.
In assay [15] the test system is MCF-10F. The experiment in a line: Induction of apoptosis in human MCF-10F cells assessed as assessed as phosphatidylserine externalization at 1 to 5 uM incubated for 24 hrs by Annexin V-FITC staining based flow cytometric analysis. The class given is functional, cell-based. As to conditions: dose 1-5 µM.
The subject of assay [16] is ZR-75-30. The experiment in a line: Induction of oxidative stress in tamoxifen-induced senescent human ZR-75-30 cells assessed as increase in cytosolic SOD1 level at 1 to 5 uM incubated for 24 hrs by MitoSOX red superoxide indicator based fluorescence analysis. The assay is classed as functional, cell-based. As to conditions: dose 1-5 µM.
The test system of assay [17] is MCF-10F. The experiment in a line: Induction of mitochondrial dysfunction in tamoxifen-induced senescent human MCF-10F cells assessed as decrease in spare respiratory capacity at 5 uM incubated for 6 hrs by real-time analysis. The class given is functional, cell-based.
Assay [18] concerns CAMA-1. The experiment in a line: Induction of apoptosis in tamoxifen-induced senescent human CAMA-1 cells assessed as decrease in HSP90 level incubated for 24 hrs by immunostaining based imaging cytometric analysis. The class given is functional, cell-based.
Another assay relates to MCF7. The experiment in a line: Antitumor activity against ER-positive human MCF7 cells xenografted in Danio rerio embryo assessed as increase in Bax mRNA level at 1 to 5 uM administered for 48 hrs by RT-PCR analysis. The class given is functional, cell-based. The following applies: dose 1-5 µM.
The test system of assay [19] is ZR-75-30. The experiment in a line: Induction of apoptosis in human ZR-75-30 cells assessed as decrease in Bcl2 level at 1 to 5 uM incubated for 24 hrs by Western blot analysis. The class given is functional, cell-based. As to conditions: dose 1-5 µM.
The test system of assay [20] is ZR-75-30. The experiment in a line: Induction of senescence in human ZR-75-30 cells assessed as […] in beta-galactosidase activity at 5 uM incubated for 24 hrs by immunostaining based imaging cytometric analysis. The class given is functional, cell-based.
Assay [21] has as its system HCC1500. The experiment in a line: Induction of apoptosis in human HCC1500 cells assessed as phosphatidylserine externalization at 1 to 5 uM incubated for 24 hrs by Annexin V-FITC staining based flow cytometric analysis. The class given is functional, cell-based. As to conditions: dose 1-5 µM.
Assay [22] deals with Mitochondrial membrane. The experiment in a line: Induction of mitochondrial membrane potential depolarization in tamoxifen-induced senescent human ZR-75-30 cells assessed as increase in depolarized dead cell level at 1 to 5 uM incubated for 24 hrs by 7-AAD staining based flow cytometric analysis. The assay is classed as cell membranes. The following applies: dose 1-5 µM.

Activity calls are given as the source filed them. The calls are words filed in the database; no cut-off is given here.

As to `CC(=O)Oc1ccc2c(=O)c(OCCCC[P+](c3ccccc3)(c3ccccc3)c3ccccc3)c(-c3ccc4c(c3)OC(c3ccccc3)(c3ccccc3)O4)oc2c1.[I-]`, the outcome in the assay on ZR-75-30 [1], with HCC1500 [3], in the assay with HCC1428 [5], in the assay on CAMA-1 [6], with ZR-75-30 [9] and with HCC1428 [13] was Active. The outcome with Mitochondrial membrane [14], in the assay on ZR-75-30 [16], in the assay with CAMA-1 [18], in the assay with MCF7, with ZR-75-30 [19] and in the assay with ZR-75-30 [20] was Active. Moreover, the result in the assay on HCC1500 [21] and with Mitochondrial membrane [22] was Active. Besides, the outcome (with MCF-10F [2]; in the assay on MCF-10F [4]; with Mitochondrial membrane [7]; in the assay on HCC1428 [8]; in assay [10]; with HCC1428 [11]) was inactive. For the same compound, the outcome (in assay [12]; with MCF-10F [15]; with MCF-10F [17]) was inactive.
